How the values were obtained:
[1] = Phase II, relapsing-remitting multiple sclerosis; cited from earlier work
[2] = in vivo; cited from earlier work
[3] = prophylactic oral 1 mg/kg, three times a week; cited from earlier work
[4] = spared nerve injury model; cited from earlier work
[5] = short-term high dose; cited from earlier work
[6] = murine; cited from earlier work
[7] = mice; cited from earlier work
CYP2C8 = target: T1, CYP2C8 (Homo sapiens, UniProt P10632); test: CYP reaction phenotyping in HLMs with selective chemical inhibitor; type: in vitro ADME
T1 construct: human liver microsomes from a pool of 200 individuals; from tissue; host or cells: human liver microsomes, pool of 200 individuals
T1 sequence (P10632 1-490): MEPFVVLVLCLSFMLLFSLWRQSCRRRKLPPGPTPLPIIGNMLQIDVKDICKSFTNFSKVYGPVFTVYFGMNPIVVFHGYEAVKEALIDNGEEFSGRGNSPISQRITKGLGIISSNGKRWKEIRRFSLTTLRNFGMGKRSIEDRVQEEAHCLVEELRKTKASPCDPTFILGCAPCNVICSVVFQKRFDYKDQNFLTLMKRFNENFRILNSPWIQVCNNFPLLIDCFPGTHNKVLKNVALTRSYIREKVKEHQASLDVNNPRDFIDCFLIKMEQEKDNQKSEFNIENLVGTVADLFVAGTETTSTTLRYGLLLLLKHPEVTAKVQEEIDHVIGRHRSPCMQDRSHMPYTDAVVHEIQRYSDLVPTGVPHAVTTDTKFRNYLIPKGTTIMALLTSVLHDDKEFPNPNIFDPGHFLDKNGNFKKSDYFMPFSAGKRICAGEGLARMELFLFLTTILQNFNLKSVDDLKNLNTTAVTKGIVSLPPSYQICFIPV

Q: For `CCCCCCCCc1ccc(CCC(N)(CO)CO)cc1` [FTY720], which “Effect on MRI lesions and clinical disease activity” value [1] is on record?
A: reduce the number of lesions detected by magnetic resonance imaging (MRI) and clinical disease activity

Q: And the “Adverse event in clinical trials” value [2]?
A: transient asymptomatic bradycardia

Q: What about the “Development of EAMG” value [3] of the same molecule?
A: completely prevented

Q: And the “Effect on nociceptive behavior” value [4]?
A: reduce the nociceptive behavior

Q: What about the “Effect on ocular infiltrates” value [5] of the same molecule?
A: rapidly reduced ocular infiltrates

Q: What about the “Effect on contact hypersensitivity” value [6] of the same molecule?
A: impair initiation

Q: What about the “Effect on ovariectomy-induced osteoporosis” value [7] of the same molecule?
A: relieved ovariectomy-induced osteoporosis

Q: What does the source list for `Cc1ccc(C)c(OCCCC(C)(C)C(=O)O)c1` [gemfibrozil]?
A: Inhibition of conversion of Compound 1 to first oxidative metabolite (CYP2C8): 85%; Inhibition of conversion of Compound 1 to ketone metabolite (CYP2C8): 60%; Inhibition of conversion of Compound 1 to second oxidative metabolite (CYP2C8): 47%

— patent US20210228545A1, “METHODS OF TREATING CONDITIONS RELATED TO THE S1P1 RECEPTOR” (Arena Pharmaceuticals, Inc., priority 2018, published 2021)
